Measured values as given in a melting point compilation (Tetko et al.; mined from patent text by program, amines drawn as free bases though some values may be those of a salt).

Compound	melting point [°C]
COc1cc(O)c(C(=O)C=Cc2ccc3nc[nH]c3c2)c(OC)c1	147 to 149
COC1C(c2ccccc2)=C(c2ccc(S(C)(=O)=O)cc2)C1(C)C (stereo not drawn)	130 to 132
CCOC(=O)C1=C(C(F)(F)F)Nc2n[nH]cc2C1c1ccccc1F (stereo not drawn)	119 to 120
CCCc1c(OCCCSCCBr)ccc(C(C)=O)c1O	74 to 75
O=c1c2ccccc2n(CCCCCl)c2ccc(Cl)cc12	101 to 106
O=C(CCCCCl)c1cccc2c1OCCO2	32 to 38
COC(=O)c1c(C)nc2c(c(-c3ccccc3)nn2C)c1-c1ccc(F)cc1	142 to 144
CC(=O)N[C@@H]1[C@H](O)CC(C(=O)O)=C[C@H]1OC(C)C	64 to 65
CCCCc1nc2c(N)nc3ccc(OCCC4CCNCC4)cc3c2n1C	210 to 212
CCCc1c2nc(C(=O)OC)cc(C(F)(F)C(F)(F)C(F)(F)F)c2cc2c(=O)cc(C(=O)OCC)oc12	144 to 146
[N-]=[N+]=NC(C(=O)O)C1c2ccccc2CCc2ccccc21 (stereo not drawn)	101 to 102
CCOC(=O)c1cccc(Nc2ncnc3[nH]cc(C(=O)c4ccccc4)c23)c1	256 to 258
CCCn1nc(OCc2ccccc2)cc1/C=C/C(=O)OCC	58 to 59
COc1cc(C(=O)N2CCC(CCN3CCC(C(=O)c4nc5ccccc5n4Cc4ccc(F)cc4)CC3)(c3ccc4c(c3)OCO4)C2)cc(OC)c1OC (stereo not drawn)	112 to 114
COC(=O)c1ccc(NC(=O)C(CC(=O)O)c2ccccc2)cc1 (stereo not drawn)	190
CC(C)(C)OC(=O)Nc1ccoc1C(N)=O	140 to 143
CCC1(NC(=O)CCl)COCOC1	89 to 95
CC(C)(C)OC(=O)N1CCC(c2c[nH]cn2)CC1	198
CC(=O)S[C@H]1CNC(=O)C1	114 to 116
c1ccc2c(c1)-c1ccccc1C21c2ccccc2-c2ccccc21	198
Cc1nc(Nc2ccccc2)sc1-c1nc2ccccc2c(=O)n1-c1ccccc1Cl	228 to 229
O=C(NC1CCCc2cc(C(=O)O)ccc21)OCc1ccccc1 (stereo not drawn)	203 to 205
CC(=O)Nc1ccc(NC(=O)C=C2CC(C(=O)OCc3ccccc3)Nc3cc(Cl)cc(Cl)c32)cc1 (racemic)	275
CCCCCS(=O)(=O)NC(=O)/C=C/c1cc(OCCOC)nn1Cc1ccc(C(F)(F)F)cc1Cl	130 to 132

Compound	melting point [°C]
NC(=O)COC(=O)c1ccccc1Cl	117 to 120
COc1cc(N)c(Cl)cc1C(=O)N[C@H]1CCN(CCO)C[C@H]1OC (relative stereo)	153
CNCC(O)c1cc(OC)c(O)c(OC)c1 (stereo not drawn)	175
N#Cc1ccccc1CNC(=O)C1Cc2ccccc2N1S(=O)(=O)c1ccc(-c2cccc(C(F)(F)F)c2)cc1 (stereo not drawn)	70
O=C(C#Cc1ccccc1)Nc1nc2ccccc2s1	174 to 176
COc1cc2nc(-c3ccccn3)nc(N)c2cc1OC	248 to 251
CC(C)(C)c1cc(C(=O)c2cccs2)cc(CN2CCSCC2)c1O	165 to 166
COc1ccc(CCNCC(O)CO)cc1OC (stereo not drawn)	80 to 82
Cn1c(=O)cc(CN2CCC(c3c[nH]c4ccccc34)CC2)c2ccccc21	228 to 229
COC(=O)C(Cl)=NNc1ccc(F)cc1	110 to 113
CC(=O)N1N=C(c2ccc([N+](=O)[O-])cc2)c2cc3c(cc2CC1C)OCO3 (stereo not drawn)	140 to 142
CN(CC(O)C(N)C(=O)c1cccc(C(F)(F)F)c1)c1ccc(Cl)cc1 (stereo not drawn)	128 to 132
CC(=O)N1C[C@@H](P(c2ccc(C)cc2)c2ccc(C)cc2)[C@H](P(c2ccc(C)cc2)c2ccc(C)cc2)C1	164 to 167
CCOC(=O)C1=C(C)OC(N)=C(C(=O)OCC)C1c1cccc([N+](=O)[O-])c1 (stereo not drawn)	161
Cc1nn(CC(O)c2ccc(OC(F)(F)F)cc2)c(=O)n1-c1ccc(N2CCN(c3ccc(O)cc3)CC2)cc1 (stereo not drawn)	231
CCCCCCC#Cc1csc(C=O)c1	2
CC(=O)c1c(C)c(C#N)c2nc(C3CC3)oc2c1N1CC[C@H](N(C)C)C1	142
Cc1cnc(N2CCN(CC[C@H]3CC[C@H](NC(=O)C4CCOCC4)CC3)CC2)c2c1OCC2	224
CC(C)CC1(C(CC(C)N2C(=O)c3ccccc3C2=O)C(=O)NO)CCN(CCc2ccccc2)C1=O (stereo not drawn)	113 to 114
CCCN(C(=O)OC(C)(C)C)C1CC=C(c2c[nH]c3cc([N+](=O)[O-])ccc23)CC1 (stereo not drawn)	214 to 216
O=C(N[C@@H](Cc1ccccc1)C[C@H](O)[C@H](Cc1ccccc1)NC(=O)OCc1cscn1)OCc1cscn1	64 to 66
O=S1(=O)c2ccccc2-c2nc3ccccc3c(Cl)c21	266 to 269
CC(C)OC(=O)Cc1ccc2c(c1)C(=O)c1sccc1CO2	92 to 94

Continued, values first:

melting point [°C]	Compound
195 to 199	N#Cc1cc(N)n(-c2c(Cl)cc(-c3ccc(C(F)(F)F)cc3)cc2Cl)n1
98 to 102	NS(=O)(=O)Oc1ccc(C(c2ccc(OS(N)(=O)=O)c(Br)c2)n2cncn2)cc1Br
210	Nc1ccc2nc(-c3ccccc3)oc2n1
291 to 292	O=C(CN1CCOCC1)Nc1ccc(-c2n[nH]c3c2Cc2ccccc2-3)cc1
120	CC(=O)OC1CSC(Oc2cccnc2N=CN(C)C)C(OC(C)=O)C1OC(C)=O (stereo not drawn)
116 to 118	c1ccc(CN2CCN(c3cccc4cccnc34)CC2)cc1
181 to 186	Cc1nnc(-c2ccccc2F)n2nc(OCc3cn(C)nn3)c(-c3ccsc3)c12
98 to 101	CCOC(=O)c1ccc2c(c1)c(C)c(C)n2C(C)=O
162 to 163	CC(=O)Oc1ccc(C2(c3ccc(OC(C)=O)cc3)C(Cl)(Cl)C23CCCCC3)cc1
139 to 142	COC(=O)C1(C(=O)O)CCc2cc(C3CCCCC3)c(Cl)cc21 (stereo not drawn)
118 to 120	C=CCN1CCc2c(sc(N)c2C(=O)c2ccc(Cl)cc2)C1
236 to 238	Cc1ncc2cc(-c3c(Cl)cccc3Cl)c(N=CN(C)C)nc2n1
225 to 227	CNS(=O)(=O)c1ccc(-c2cnc3[nH]c(CCc4cc(OC)ccn4)nc3c2)cc1
151 to 152	O=c1c(-c2ccccc2)coc2cc(OCC3CO3)ccc12 (stereo not drawn)
218 to 220	Cc1noc(C(=O)NCCc2ccc(S(N)(=O)=O)cc2)n1
99 to 101	BrCc1cc2ccsc2c2ccccc12
129 to 130	O=[N+]([O-])c1sc2ccc(F)cc2c1Br
304	CN1CCN(C2=N/C(=C\c3c[nH]c4ncc(-c5ccccc5)cc34)C(=O)N2)CC1
135 to 137	CC(=O)OC(COc1ccc(C(=O)O)cc1)c1cc2cc(C(C)C)ccc2o1 (stereo not drawn)
70 to 72	COC(=O)OCC1OC(n2cc(C)c(=O)[nH]c2=O)CC1OS(C)(=O)=O (stereo not drawn)
132 to 134	CCCCCc1c(O)ccc2c1OCCC2=O
141 to 143	Cc1c(SCCCn2c([N+](=O)[O-])cnc2C)ccnc1CSc1ncccn1
130 to 131	CC(=O)OC1CSC(Oc2cncc(-c3cccc(C#N)c3)c2)C(OC(C)=O)C1OC(C)=O (stereo not drawn)
198 to 200	CCCn1c(=O)c2c(nc(C=Cc3ccc(C(=O)OC)cc3OC)n2C)n(CCC)c1=O
236 to 237	CC(C)Cn1c(C(=O)O)c(-c2ccc(F)cc2)c2cc(OCc3ccccc3)ccc2c1=O
169	CC(=O)Oc1ccc(C(C)(c2ccc(OC(C)=O)cc2)c2ccc(OC(C)=O)cc2)cc1

melting point [°C]	Compound
158	CCOC(=O)COc1cccc(-c2nc3ncccc3[nH]2)c1
112 to 115	NS(=O)c1ccccc1 (stereo not drawn)
175 to 177	CN1C(C)(C)CC2(CC1(C)C)NC(=O)N(CC(O)COCC(O)COCC(O)CN1C(=O)NC3(CC(C)(C)N(C)C(C)(C)C3)C1=O)C2=O (stereo not drawn)
188 to 189	CC(=O)Nc1cc(N(CCO)CCO)ccc1N=Nc1snc(C)c1C#N
139 to 140	CN(C)C(=O)COc1cc(Cl)ccc1C(=O)NCCN1CCN(C(=O)OC(C)(C)C)CC1
184 to 187	CCC=CCn1c(=O)sc2c(=O)n(C)c(N)nc21
170 to 171	O=C(O)c1ncc(Br)cc1Br
158 to 159	COc1ccc(-c2sc3c(c2C)c(=O)c(COC(C)=O)cn3Cc2ccccc2OC)cc1
258 to 260	CN1CCC(c2[nH]c(=O)c3ccccc3c2-c2ccccc2)CC1
297	CC(C)(C)c1ccc(-c2cc3ccc(C(=O)O)cc3[nH]2)cc1
145 to 148	COc1ccc2c(c1)c(Cc1cc(=O)n(C3CCCCCC3)[nH]1)c(C)n2C(=O)c1ccc(Cl)cc1
143 to 144	CCC(=NO)C(C)(C)NCC(Cn1ccnc1[N+](=O)[O-])ONC(C)(C)C(CC)=NO (stereo not drawn)
207 to 208	CC(=O)c1cnc(-c2ccccc2)c(-c2ccc(=O)n(C(C)C)n2)c1
210 to 213	CC1(C)[C@@H](C(=O)Nc2cc(C(F)(F)F)n[nH]2)[C@@H]1c1ccc(S(N)(=O)=O)cc1 (relative stereo)
39 to 41	CNc1cc(C(F)(F)F)on1
187 to 189	COc1cc(C=CC(=O)Nc2c(-c3ccccc3Cl)c3cc(C(C)C)ccc3n(C)c2=O)cc(OC)c1OC(C)=O
314 to 316	COc1cc2ccc(-c3cc(C(=O)O)cs3)cc2cc1C12CC3CC(CC(C3)C1)C2
220 to 221	O=C(O)Cc1ccc(NC(=O)C(COc2cccc(Cl)c2)NS(=O)(=O)c2ccc(Cl)cc2)cc1 (racemic)
274 to 275	N#Cc1ccc2c(c1)C(=O)c1cc(N3CCCCC3)ccc1C2=O
182 to 183	CN(C)C=Nc1[nH]nc(N2CCOCC2)c1C#N
48 to 49	CC1=NCN(c2ccc(Br)s2)O1
252 to 254	COc1ccc(-c2nnc3c4ccccc4c(OCCO)nn23)cc1
201 to 202	COCCOc1c(C)cc(-c2nc3cc(OC)cc(OC)c3c(=O)[nH]2)cc1C
55.5 to 56.5	CC(C)(C)OC(=O)NCc1ccccc1
103 to 104	CCOC(=O)C1=C(COCCCCO)NC(C)=C(C(=O)OC)C1c1cccc(Cl)c1Cl (stereo not drawn)
